The compounds below were run on RSV (Long) (assay: RSV cytopathic effect (CPE)-based viral replication assay). Details: HEp-2 cells infected with RSV Long at MOI 0.015; 3 days at 37° C.; cell viability by CellTiter-Glo luminescence; read-out: EC50 (nm).
Format: cell-based, respiratory syncytial virus (RSV)
Description: Example A: RSV Cytopathic Effect
Compounds of the invention are initially tested in a cytopathic effect (CPE)-based viral replication assay using immortalized cells and a laboratory strain of RSV (Long). This assay evaluates the ability of a compound to inhibit viral replication.
Assay plates are prepared by seeding 2,500 HEp-2 cells (ATCC) per well of a 384-well black clear-bottom plate (Greiner Bio-One) in 20 μL of assay media (defined as DMEM supplemented with 2% heat-inactivated fetal bovine serum and 1% Penicillin/Streptomycin). Assay plates are incubated overnight at 37° C. in an incubator containing 5% CO2. The following day, a 10-point serial dilution of test compound is prepared in DMSO. Compounds are subsequently diluted with assay media and 20 μL of diluted compound (containing 1.5% DMSO) is transferred to an assay plate for evaluation of antiviral activity.
For the CPE assay, cells are infected at a Multiplicity of Infection (MOI) of 0.015 using 20 μL of RSV Long (ATCC) diluted in assay media. The DMSO concentration is constant throughout the assay plate, including the negative and positive controls. The assay plate is incubated for 3 days at 37° C. in an incubator containing 5% CO2. Cell viability is evaluated with the addition of 10 μL of CellTiter-Glo (ProMega). Luminescence is measured using an EnVision plate reader (Perkin Elmer). EC50 values are calculated using the raw data from the CPE assays.
In the case of CS(=O)(=O)N1CC2(C1)C(=O)N(Cc1ncc3ccccc3c1CF)c1ccccc12 [Example 59], the EC50 is reported as 5.7 nM. Work on O=C1N(Cc2ncc3ccccc3c2-c2ccc(F)nc2)c2ccccc2C12CC(NCCF)C2 (single isomer, unassigned) [Example 87-2, 3-((2-fluoroethyl)amino)-1′-((4-(6-fluoropyridin-3-yl)isoquinolin-3-yl)methyl)spiro[cyclobutane-1,3′-indolin]-2′-one] yielded an EC50 of 4.6 nM. Compound O=C1CC(c2c(Cn3c(=O)n(C4CC4)c4ccncc43)ncc3ccccc23)CN1 (stereo not shown) [Example 2019] has an EC50 of 15 nM. In the case of O=C1CC(c2c(Cn3c(=O)n(C4CC4)c4ccncc43)ncc3ccccc23)CN1 (stereo not shown) [Example 112c, 1-cyclopropyl-3-((4-(5-oxopyrrolidin-3-yl)isoquinolin-3-yl)methyl)-1H-imidazo[4,5-c]pyridin-2(3H)-one], the EC50 is reported as 12 nM.

Same assay, conditions: human respiratory syncytial virus, HEp-2, 72 h, HEp-2 cells infected with RSV Long at MOI 0.015; 3 days at 37° C.; cell viability by CellTiter-Glo luminescence; read-out: EC50 (nm)
Work on NC(=O)N1CCC2(CC1)C(=O)N(Cc1ncc3ccccc3c1-c1cccnc1)c1cnccc12 [Example 135b, 2′-oxo-1′-((4-(pyridin-3-yl)isoquinolin-3-yl)methyl)-1′,2′-dihydrospiro[piperidine-4,3′-pyrrolo[2,3-c]pyridine]-1-carboxamide] yielded an EC50 of 2 nM. O=c1n(Cc2ncc3ccccc3c2CCCCO)c2cnccc2n1CC(F)(F)F [Example 3c, 3-((4-(4-hydroxybutyl)isoquinolin-3-yl)methyl)-1-(2,2,2-trifluoroethyl)-1H-imidazo[4,5-c]pyridin-2(3H)-one] gave an EC50 of 23 nM. Compound CC(C)(C)NC(=O)N1CC2(C1)C(=O)N(Cc1ncc3ccccc3c1CCCCO)c1ccccc12 [Example 56, N-(tert-butyl)-1′-((4-(4-hydroxybutyl)isoquinolin-3-yl)methyl)-2′-oxospiro[azetidine-3,3′-indoline]-1-carboxamide] has an EC50 of 1.3 nM. For N#Cc1ccc(-c2c(CN3C(=O)C4(CN(C(=O)C5(N)CC5)C4)c4ccccc43)ncc3ccccc23)cn1 [Example 60c, 5-(3-((1-(1-Aminocyclopropanecarbonyl)-2′-oxospiro[azetidine-3,3′-indolin]-1′-yl)methyl)isoquinolin-4-yl)picolinonitrile], the EC50 was 25 nM. In the case of CN(C)C(=O)c1ccc(-c2c(CN3C(=O)C4(CCN(C(=O)C5(N)CC5)CC4)c4ccncc43)ncc3ccccc23)cn1 [Example 120, 5-(3-((1-(1-aminocyclopropanecarbonyl)-2′-oxospiro[piperidine-4,3′-pyrrolo[2,3-c]pyridin]-1′(2′H)-yl)methyl)isoquinolin-4-yl)-N,N-dimethylpicolinamide], the EC50 is reported as 4.7 nM. In the case of CS(=O)(=O)N1CCC2(CC1)C(=O)N(Cc1ncc3ccccc3c1-c1cncs1)c1cnccc12 [Example 98c], the EC50 is reported as 1.9 nM. With CNC1(C(=O)N2CC3(C2)C(=O)N(Cc2ncc4ccccc4c2-c2ccc(NS(C)(=O)=O)cn2)c2ccccc23)CC1 [Example 2005] the EC50 was 230 nM. Work on O=c1n(Cc2ncc3ccccc3c2COCC(F)(F)F)c2cnccc2n1C1CC1 [Example 127, 1-Cyclopropyl-3-((4-((2,2,2-trifluoroethoxy)methyl)isoquinolin-3-yl)methyl)-1H-imidazo[4,5-c]pyridin-2(3H)-one] yielded an EC50 of 690 nM. CC(C)(O)C(=O)N1CCC2(CC1)C(=O)N(Cc1ncc3ccccc3c1-c1cccnc1)c1cnccc12 [Example 138, 1-(2-hydroxy-2-methylpropanoyl)-1′-((4-(pyridin-3-yl)isoquinolin-3-yl)methyl)spiro[piperidine-4,3′-pyrrolo[2,3-c]pyridin]-2′(1′H)-one] showed an EC50 of 3.6 nM. Compound CS(=O)(=O)N1CC2(C1)C(=O)N(Cc1ncc3ccccc3c1-c1ccc(F)cc1)c1ccccc12 [Example 74] has an EC50 of 5.8 nM. Work on CS(=O)(=O)N1CCC(n2c(=O)n(Cc3ncc4ccccc4c3CCCCO)c3cnccc32)CC1 [Example 18c, 3-((4-(4-hydroxybutyl)isoquinolin-3-yl)methyl)-1-(1-(methylsulfonyl)piperidin-4-yl)-1H-imidazo[4,5-c]pyridin-2(3H)-one] yielded an EC50 of 3.4 nM. In the case of CS(=O)(=O)Nc1cncc(-c2c(CN3C(=O)C4(CN(C(=O)C5(N)CC5)C4)c4ccccc43)ncc3ccccc23)c1 [Example 2006], the EC50 is reported as 26 nM. NC1(C(=O)N2CCC3(CC2)C(=O)N(Cc2ncc4ccccc4c2-c2ccc(C(=O)O)nc2)c2cnccc23)CC1 [Example 50b, 5-(3-((1-(1-aminocyclopropanecarbonyl)-2′-oxospiro[piperidine-4,3′-pyrrolo[2,3-c]pyridin]-1′(2′H)-yl)methyl)isoquinolin-4-yl)picolinic acid] showed an EC50 of 4.3 nM. O=c1n(Cc2ncc3ccccc3c2CCCCO)c2ccccc2n1CC(F)(F)F [Example 5c, 1-((4-(4-hydroxybutyl)isoquinolin-3-yl)methyl)-3-(2,2,2-trifluoroethyl)-1H-benzo[d]imidazol-2(3H)-one] was tested, and the EC50 was 19 nM. In the case of COC(=O)N1CC2(C1)C(=O)N(Cc1nc(C(F)F)c3ccccc3c1-c1cccnc1)c1ccccc12 [Example 2003], the EC50 is reported as 1000 nM. NC1(C(=O)N2CCC3(CC2)C(=O)N(Cc2ncc4ccccc4c2-c2cccnc2)c2cnccc23)CC1 [Example 137] was tested, and the EC50 was 5.4 nM. Work on NC1(C(=O)N2CC3(C2)C(=O)N(Cc2ncc4ccccc4c2-c2cccnc2)c2ccccc23)CC1 [Example 147, 1-(1-aminocyclopropanecarbonyl)-1′-((4-(pyridin-3-yl)isoquinolin-3-yl)methyl)spiro[azetidine-3,3′-indolin]-2′-one] yielded an EC50 of 18 nM. CS(=O)(=O)N1CC2(C1)C(=O)N(Cc1ncc3ccccc3c1-c1ccc(C(F)(F)F)cc1)c1ccccc12 [Example 79, 1-(Methylsulfonyl)-1′-((4-(4-(trifluoromethyl)phenyl)isoquinolin-3-yl)methyl)spiro[azetidine-3,3′-indolin]-2′-one] was tested, and the EC50 was 8.7 nM. Compound CS(=O)(=O)N1CCC2(CC1)C(=O)N(Cc1ncc3ccccc3c1-c1ccc(C(N)C(F)(F)F)nc1)c1cnccc12 (stereo not shown) [Example 158c, 1′-((4-(6-(1-amino-2,2,2-trifluoroethyl)pyridin-3-yl)isoquinolin-3-yl)methyl)-1-(methylsulfonyl)spiro[piperidine-4,3′-pyrrolo[2,3-c]pyridin]-2′(1′H)-one] has an EC50 of 3 nM. Work on COC(=O)N1CC2(C1)C(=O)N(Cc1ncc3ccccc3c1-c1ccc(C(N)C(F)(F)F)nc1)c1ccccc12 (stereo not shown) [Example 157b, methyl 1′-((4-(6-(1-amino-2,2,2-trifluoroethyl)pyridin-3-yl)isoquinolin-3-yl)methyl)-2′-oxospiro[azetidine-3,3′-indoline]-1-carboxylate] yielded an EC50 of 4 nM. For CC(C)(C)OC(=O)N1CC2(C1)C(=O)N(Cc1ncc3ccccc3c1CCCCO)c1ccccc12 [Example 36c, tert-butyl 1′-((4-(4-hydroxybutyl)isoquinolin-3-yl)methyl)-2′-oxospiro[azetidine-3,3′-indoline]-1-carboxylate], the EC50 was 2.2 nM. With CS(=O)(=O)N1CCC2(CC1)C(=O)N(Cc1ncc3ccccc3c1-c1cnc(C(N)=O)cn1)c1cnccc12 [Example 2017] the EC50 was 34 nM. Work on N[C@@H]1CCN(c2ccc3c(CCCCO)c(Cn4c(=O)n(C5CC5)c5ccncc54)ncc3c2)C1 [Example 32c, (R)-3-((7-(3-aminopyrrolidin-1-yl)-4-(4-hydroxybutyl)isoquinolin-3-yl)methyl)-1-cyclopropyl-1H-imidazo[4,5-c]pyridin-2(3H)-one] yielded an EC50 of 5800 nM. COC(=O)C1CC2(C1)C(=O)N(Cc1ncc3ccccc3c1-c1ccc(C3(N)CC3)nc1)c1cnccc12 (stereo not shown) [Example 2002] was tested, and the EC50 was 5.4 nM. Compound O=c1n(Cc2ncc3cc(Cl)ccc3c2CCCCO)c2cnccc2n1C1CC1 [Example 19b, 3-((7-chloro-4-(4-hydroxybutyl)isoquinolin-3-yl)methyl)-1-cyclopropyl-1H-imidazo[4,5-c]pyridin-2(3H)-one] has an EC50 of 110 nM. With NC1(NC(=O)N2CC3(C2)C(=O)N(Cc2ncc4ccccc4c2-c2cccnc2)c2ccccc23)CC1 [Example 155, N-(1-aminocyclopropyl)-2′-oxo-1′-((4-(pyridin-3-yl)isoquinolin-3-yl)methyl)spiro[azetidine-3,3′-indoline]-1-carboxamide] the EC50 was 2 nM. CN(C)C1(C(=O)N2CC3(C2)C(=O)N(Cc2ncc4ccccc4c2-c2ccc(C#N)nc2)c2ccccc23)CC1 [Example 62, 5-(3-((1-(1-(dimethylamino)cyclopropanecarbonyl)-2′-oxospiro[azetidine-3,3′-indolin]-1′-yl)methyl)isoquinolin-4-yl)picolinonitrile] showed an EC50 of 10 nM. In the case of NC1(C(=O)N2CC3(C2)C(=O)N(Cc2ncc4ccccc4c2-c2ccc(S(N)(=O)=O)cc2)c2ccccc23)CC1 [Example 125, 4-(3-((1-(1-aminocyclopropanecarbonyl)-2′-oxospiro[azetidine-3,3′-indolin]-1′-yl)methyl)isoquinolin-4-yl)benzenesulfonamide], the EC50 is reported as 6 nM. NC(=O)c1ccc(-c2c(CN3C(=O)C4(CCN(C(=O)C(N)C(F)(F)F)CC4)c4ccncc43)ncc3ccccc23)cn1 (stereo not shown) [Example 2007] gave an EC50 of 4 nM. Compound CS(=O)(=O)c1ccc(-c2c(Cn3c(=O)n(C4CC4)c4ccncc43)ncc3ccccc23)cc1 [Example 69d, 1-cyclopropyl-3-((4-(4-(methylsulfonyl)phenyl)isoquinolin-3-yl)methyl)-1H-imidazo[4,5-c]pyridin-2(3H)-one] has an EC50 of 5.8 nM.

— patent US20190002436A1, “RESPIRATORY SYNCYTIAL VIRUS INHIBITORS” (MEDIVIR AB, priority 2015, published 2019)
